# Data reported in publication PMC5301252, “A new approach to quantification of mAb aggregates using peptide affinity probes” (Scientific Reports, 2017).
# Legend:
# [1] = test system: NISTmAb aggregates generated by agitation; experiment: Phage ELISA, binding to aggregated NISTmAb versus control NISTmAb; details: phage clone displaying the peptide, 2 hours, room temperature
# Procedure: (§1) In the second step, a sample of the cross-linked NISTmAb was used as bait to screen a Ph.D.−12 phage display peptide library. The bait represents a mixture of monomer and cross-linked aggregated NISTmAb; this was also the only occasion when cross-linked sample was used. Phage display panning was performed in a subtractive manner. The library was initially depleted with control non-aggregated NISTmAb using three iterative cycles. The unbound phage was then screened on cross-linked NISTmAb aggregates, again using three iterative cycles of phage binding, elution, and amplification. After these rounds of panning, the single phage plaques were randomly picked up and amplified, and phage DNA was submitted for sequencing. In parallel, the ability to bind NISTmAb aggregates was evaluated using phage enzyme-linked immunosorbent assay (ELISA) for all selected phage clones. […] Clones #1 and #4 show respectively 9-fold and 7-fold better binding toward aggregated NISTmAb, compared to their binding toward control non-aggregated NISTmAb. […]
# (§2) To assess the binding ability of the selected phages toward NISTmAb aggregates, 1 × 10^10 pfu of P02-C06 phage was incubated with 50 μg of NISTmAb aggregates at room temperature for 2 hours. […] Tetramethybezidine substrate reagent (eBioscience, San Diego, CA) was subsequently added and absorbance was read at 450 nm.
# [2] = test system: control non-aggregated NISTmAb; experiment: Phage ELISA, binding to control NISTmAb; details: phage clone displaying the peptide; 2 hours, room temperature; absorbance 450 nm; three analytical replicates
# Procedure: as §1, §2
sequence,measurement,setting,value
GNNPLHVHHDKRGGG [P02-C04],binding preference,"[1]; aggregated vs control NISTmAb, absorbance 450 nm",preferential binding to NISTmAb aggregates
same,fold better binding toward aggregated NISTmAb compared to control non-aggregated NISTmAb,"[1]; 1 × 10^10 pfu, HRP anti-M13, absorbance 450 nm, three analytical replicates",7 -fold
same,"affinity toward non-aggregated NISTmAb, compared to other clones",[2],lowest
